Data on three compounds can be found in patent publication US10807971B2, “Pyrrolidinone compounds” (Eli Lilly and Company, priority 2016, dated 2020).

Structures can show the parent of a compound that is named as a salt.

In experiment [1] the test system is obese DIO mice. Briefly: Therapeutic weight loss effect in HFD feeding induced obese mouse model (DIO mice). Format: in vivo. As to conditions: day 14. The protocol:
To determine the therapeutic weight loss effects and improvement of metabolic parameters, the compound from the invention is tested in a HFD feeding induced obese mouse model (DIO mice). In this model, C57/B16J male mouse is fed with the 60% HFD (D12492i, Research Diets) for 16˜28 weeks to establish obesity with body weight reaching around 50 g. The mice will gradually increase their body weight to about 50 g and maintain that weight in this obese state.

Experiment [2] has as its target Human DPP-4 ((39-766)-His) (Homo sapiens (Human), UniProt P27487). Nature of the experiment: Enzymatic activity assay of DPP-4 (Gly-Pro-AMC fluorescence). Particulars: (SD, n), read-out: hDPP-4 IC50. Format: biochemical. How it is done: (§1) Inhibition of the catalytic activity of human and mouse DPP-4 by the compound in the present invention is monitored by the formation of product fluorescence AMC from substrate Gly-Pro-AMC (Sigma, G2761) on an Envision plate reader. […] The IC50 value is calculated typically from a 10-point dose titration curve using the 4-parameter logistic equation.

The target in experiment [3] is mouse DPP-4 ((29-760)-His) (Mus musculus (Mouse), UniProt P28843). Described as above. The class given is biochemical. Particulars: (SD, n), read-out: mDPP-4 IC50. The protocol:
as §1

mouse DPP-4 ((29-760)-His), sequence (P28843 29-760): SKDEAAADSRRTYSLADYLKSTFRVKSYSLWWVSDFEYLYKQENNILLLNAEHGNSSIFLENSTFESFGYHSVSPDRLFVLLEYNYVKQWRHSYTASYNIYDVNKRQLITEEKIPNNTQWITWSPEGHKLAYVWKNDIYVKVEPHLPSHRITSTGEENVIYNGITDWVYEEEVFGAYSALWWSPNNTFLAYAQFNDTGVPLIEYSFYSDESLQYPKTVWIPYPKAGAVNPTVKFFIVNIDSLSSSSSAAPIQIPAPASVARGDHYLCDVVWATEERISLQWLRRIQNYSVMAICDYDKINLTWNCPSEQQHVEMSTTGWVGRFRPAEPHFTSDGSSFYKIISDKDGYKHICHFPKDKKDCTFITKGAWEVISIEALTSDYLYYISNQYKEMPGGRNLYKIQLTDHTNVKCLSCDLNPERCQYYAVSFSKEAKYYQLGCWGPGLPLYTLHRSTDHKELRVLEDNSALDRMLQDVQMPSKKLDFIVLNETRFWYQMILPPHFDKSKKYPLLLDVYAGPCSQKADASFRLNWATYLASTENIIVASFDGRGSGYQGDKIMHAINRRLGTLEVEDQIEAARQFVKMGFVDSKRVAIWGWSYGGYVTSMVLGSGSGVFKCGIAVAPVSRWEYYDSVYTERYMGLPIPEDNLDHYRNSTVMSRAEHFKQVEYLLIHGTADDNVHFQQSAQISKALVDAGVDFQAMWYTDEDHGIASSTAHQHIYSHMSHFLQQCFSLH
Human DPP-4 ((39-766)-His), sequence (P27487 39-766): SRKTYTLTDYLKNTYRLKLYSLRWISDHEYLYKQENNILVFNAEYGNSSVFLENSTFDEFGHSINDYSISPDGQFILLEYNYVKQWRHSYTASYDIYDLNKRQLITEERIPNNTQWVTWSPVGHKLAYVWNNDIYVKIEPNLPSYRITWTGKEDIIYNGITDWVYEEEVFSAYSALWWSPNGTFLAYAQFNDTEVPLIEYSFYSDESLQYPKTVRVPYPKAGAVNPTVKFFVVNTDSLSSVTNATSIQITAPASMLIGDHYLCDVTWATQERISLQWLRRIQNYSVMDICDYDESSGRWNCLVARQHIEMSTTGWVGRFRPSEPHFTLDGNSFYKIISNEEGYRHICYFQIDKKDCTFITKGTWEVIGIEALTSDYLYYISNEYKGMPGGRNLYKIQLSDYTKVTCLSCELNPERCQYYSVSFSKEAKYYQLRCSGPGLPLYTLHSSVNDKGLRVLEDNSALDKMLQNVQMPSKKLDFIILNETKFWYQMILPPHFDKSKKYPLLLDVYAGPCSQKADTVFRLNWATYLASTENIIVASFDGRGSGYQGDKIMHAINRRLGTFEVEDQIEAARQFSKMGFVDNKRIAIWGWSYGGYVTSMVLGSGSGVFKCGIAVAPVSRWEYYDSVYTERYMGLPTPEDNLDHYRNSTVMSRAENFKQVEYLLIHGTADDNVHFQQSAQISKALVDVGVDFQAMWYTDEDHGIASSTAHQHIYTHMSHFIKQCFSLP

`Cl.N[C@H]1C[C@@H](N2Cc3ccc(N4CCC(O)(C(=O)NCc5cc(F)cc(F)c5F)C4=O)cc3C2)CO[C@@H]1c1cc(F)ccc1F` (single isomer, unassigned; isomer 1) [Example 1]: the “weight loss compared to the vehicle group” value in experiment [1] (oral 20 mg/kg once daily) is “about 8.9%”.

Take `Cl.N[C@H]1C[C@@H](n2cc(N3CCC(O)(C(=O)NCc4cc(Cl)cc(Cl)c4F)C3=O)cn2)CO[C@@H]1c1cc(F)ccc1F` (single isomer, unassigned; isomer 1) [Example 7]: the “weight loss compared to the vehicle group” value in experiment [1] (oral 40 mg/kg once daily) is listed as “about 4.8%”.

As usually defined, the IC50 is the concentration at which inhibition is half-maximal. For the compound `N[C@H]1C[C@@H](n2ncc(N3CCC(O)(C(=O)NCc4cc(Cl)cc(Cl)c4F)C3=O)n2)CO[C@@H]1c1cc(F)ccc1F` (single isomer, unassigned; isomer 1) [Example 11, hydrochloride], the IC50 in experiment [2] and in experiment [3] was less than 1.52 nM each time.
